Experimental data published in ChEMBL document CHEMBL1128855, “Design and synthesis of an antitumor prodrug released by the reaction with sulfhydryl compounds” (Bioorg Med Chem Lett, 1995).
≈ marks a conversion by molar mass, not a printed value.

Legend:
L1210 (1565) [1] = experiment: Cytotoxic activity against L-1210 parental cell line; type: functional, cell-based, Mus musculus
L1210 (1565) [2] = experiment: Cytotoxic activity against adriamycin (ADR) resistant L-1210 cell line; type: functional, cell-based, Mus musculus
[3] = Relative resistance value of Adriamycin resistant L-1210/L-1210 parental cell line; type: functional
HeLa = experiment: Cytotoxic activity against HeLa S3 cells; type: functional, cell-based; settings: Homo sapiens
L1210 (1565) [4] = experiment: cytotoxic activity against adriamycin (ADR) resistant L-1210 cell line; type: functional, cell-based, Mus musculus

| Compound | IC50 (L1210 (1565) [1]) [nM ml-1] | IC50 (L1210 (1565) [2]) [nM ml-1] | Ratio [3] | IC50 (HeLa) [µg/mL] | IC50 (L1210 (1565) [4]) [nM ml-1] |
| --- | --- | --- | --- | --- | --- |
| COc1cccc2c1C(=O)c1c(O)c3c(c(O)c1C2=O)C[C@@](O)(C(C)=O)C[C@@H]3O[C@H]1C[C@H](N)[C@H](O)[C@H](C)O1.Cl [DAUNORUBICIN HYDROCHLORIDE] | 0.016 | 0.147 | 9.2 |  |  |
| COc1cccc2c1C(=O)c1c(O)c3c(c(O)c1C2=O)C[C@@](O)(C(C)=O)C[C@@H]3OC1CC(NC(=O)OCC2=CCC(C)(C)CC2=O)C(O)C(C)O1 (some centres undefined) | 0.038 | 0.14 | 3.7 | 0.0096 (≈ 0.0136 µM) |  |
| CC(=O)OCC1=CCC(C)(C)CC1=O |  |  |  | 23.5 (≈ 120 µM) |  |
| COc1cccc2c1C(=O)c1c(O)c3c(c(O)c1C2=O)C[C@@](O)(C(=O)CO)C[C@@H]3O[C@H]1C[C@H](N)[C@H](O)[C@H](C)O1 [DOXORUBICIN] | 0.022 |  | 14.1 |  | 0.315 |
| CC1(C)CC=C(CI)C(=O)C1 |  |  |  | 2.3 (≈ 8.71 µM) |  |
| C/C=C/C(=O)OCC1=CCC(C)(C)CC1=O |  |  |  | 4.7 (≈ 21.1 µM) |  |
| CC1(C)CC=C(CO)C(=O)C1 |  |  |  | > 100 |  |
